“And” between values parts separate entries of the source, which are not always exact repeats. Equal values may be shown once. Read-outs that look alike come from different tables or passages of the source.
Columns and labels:
CLC-2 [1] = biological target: T1, CLC-2 (Homo sapiens (Human), UniProt P51788); assay: IonWorks Barracuda automated patch-clamp electrophysiology, human CLC-2 cell line; assay type: cell-based; conditions: for % inhibition at the concentration listed (in parenthesis): CLC-2, at the concentration listed in the IC50 cell, negative = increase in peak current
T1 sequence (P51788 whole entry): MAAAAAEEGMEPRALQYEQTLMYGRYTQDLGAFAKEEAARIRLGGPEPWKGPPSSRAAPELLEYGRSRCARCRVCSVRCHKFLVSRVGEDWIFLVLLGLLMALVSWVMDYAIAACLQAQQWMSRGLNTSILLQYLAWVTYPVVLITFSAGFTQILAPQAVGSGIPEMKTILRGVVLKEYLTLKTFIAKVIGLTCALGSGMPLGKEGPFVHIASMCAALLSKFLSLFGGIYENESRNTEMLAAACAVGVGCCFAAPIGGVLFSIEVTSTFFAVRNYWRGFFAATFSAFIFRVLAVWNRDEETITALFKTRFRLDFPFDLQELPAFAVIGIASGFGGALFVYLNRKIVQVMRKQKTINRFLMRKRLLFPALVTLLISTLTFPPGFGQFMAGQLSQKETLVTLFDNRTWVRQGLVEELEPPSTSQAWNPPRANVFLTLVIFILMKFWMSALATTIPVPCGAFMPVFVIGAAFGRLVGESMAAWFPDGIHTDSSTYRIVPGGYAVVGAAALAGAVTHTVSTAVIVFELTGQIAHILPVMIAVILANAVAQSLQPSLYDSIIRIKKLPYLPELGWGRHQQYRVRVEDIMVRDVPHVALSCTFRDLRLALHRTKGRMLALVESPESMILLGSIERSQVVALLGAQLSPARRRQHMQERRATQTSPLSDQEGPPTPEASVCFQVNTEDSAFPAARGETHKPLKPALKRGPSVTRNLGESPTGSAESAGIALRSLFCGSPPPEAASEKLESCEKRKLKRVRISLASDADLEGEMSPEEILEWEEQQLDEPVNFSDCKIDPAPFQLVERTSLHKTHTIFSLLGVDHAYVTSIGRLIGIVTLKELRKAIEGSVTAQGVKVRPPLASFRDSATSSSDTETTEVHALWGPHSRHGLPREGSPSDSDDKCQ
Text: FIG. 8, panels A and B depict graphically the Selectivity between CLC-1 and CLC-2. […]

CLC-1 = CLC-1 (Homo sapiens (Human), UniProt P35523); assay: IonWorks Barracuda automated patch-clamp electrophysiology, CLC-1; assay type: cell-based; conditions: for IC50: Table 2
Sequence of CLC-1 (P35523 whole entry): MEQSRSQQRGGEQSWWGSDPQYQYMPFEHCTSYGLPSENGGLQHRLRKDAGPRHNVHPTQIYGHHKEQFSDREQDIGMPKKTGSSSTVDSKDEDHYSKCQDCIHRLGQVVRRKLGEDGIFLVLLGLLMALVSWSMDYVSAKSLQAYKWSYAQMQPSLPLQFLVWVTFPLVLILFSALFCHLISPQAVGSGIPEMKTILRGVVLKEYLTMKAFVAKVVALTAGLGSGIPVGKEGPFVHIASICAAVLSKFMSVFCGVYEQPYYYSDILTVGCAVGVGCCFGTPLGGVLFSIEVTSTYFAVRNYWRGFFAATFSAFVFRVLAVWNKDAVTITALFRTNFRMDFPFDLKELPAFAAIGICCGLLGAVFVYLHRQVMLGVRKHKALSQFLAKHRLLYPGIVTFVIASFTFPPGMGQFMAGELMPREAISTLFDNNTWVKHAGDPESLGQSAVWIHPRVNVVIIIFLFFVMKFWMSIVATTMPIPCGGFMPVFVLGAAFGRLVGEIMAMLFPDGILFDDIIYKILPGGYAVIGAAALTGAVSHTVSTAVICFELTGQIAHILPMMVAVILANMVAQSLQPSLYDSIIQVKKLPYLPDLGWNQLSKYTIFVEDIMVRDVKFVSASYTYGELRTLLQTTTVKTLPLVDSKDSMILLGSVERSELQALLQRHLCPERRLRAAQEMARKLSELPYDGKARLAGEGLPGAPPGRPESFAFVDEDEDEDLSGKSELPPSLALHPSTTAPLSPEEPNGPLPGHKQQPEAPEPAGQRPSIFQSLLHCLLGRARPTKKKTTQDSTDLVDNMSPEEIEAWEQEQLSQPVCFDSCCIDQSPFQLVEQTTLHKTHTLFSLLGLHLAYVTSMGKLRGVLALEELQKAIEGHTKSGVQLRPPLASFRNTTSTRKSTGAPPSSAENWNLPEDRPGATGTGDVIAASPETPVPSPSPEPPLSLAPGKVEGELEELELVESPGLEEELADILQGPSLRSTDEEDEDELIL
Description: If the IC50 was greater than the highest concentration tested, this concentration is listed along with the percent inhibition at this concentration (in parenthesis).
FIG. 8, panels A and B depict graphically the Selectivity between CLC-1 and CLC-2. […] Data points represent the mean current block at 16 different FA44 concentrations (n=4-8), using the IonWorks™ Barracuda. […] Panel B depicts a summary graph showing the mean inhibition of CLC-1 (left bar) or CLC-2 (right bar) current at 30 μM, illustrating the improvement in both selectivity and potency from the hit compound MCFA to the exemplary compound FA44.

CLC-2 [2] = biological target: T1, CLC-2; conditions: cited from earlier work
[3] = n = 4 cells, four concentrations of each compound, IonWorks Barracuda, read-out: IC50 (μM) against CLC-2
[4] = Table 2, read-out: IC50 (CLC-2)

% inhibition at the concentration listed (in parenthesis) (CLC-2 [1])	IC50 (CLC-2 [1]; [3])	Structure (SMILES)	further results
	22.1 µM	O=C(O)c1ccccc1Nc1c(Cl)cccc1Cl [AK2-209A]	
(23%)	> 120 µM	O=C(O)c1ccccc1Nc1cc(Cl)ccc1Cl [AK2-209B]	
(28%)	> 120 µM	Cc1ccc(Cl)c(Nc2ccccc2OS(=O)(=O)O)c1Cl [AK2-262]	
	35.7 µM	O=C(O)c1ccccc1Nc1c(Cl)ccc(C(F)(F)F)c1Cl [AK2-270A]	
	24.7 µM	Cc1ccc(C(=O)O)c(Nc2c(Cl)ccc(C)c2Cl)c1 [AK2-288A]	
	7.69 µM	CCc1ccc(Cl)c(Nc2ccccc2C(=O)O)c1Cl [AK2-292]	
	33.4 µM	Cc1ccc(Cl)c(Nc2ccccc2-c2nnn[nH]2)c1Cl [AK3-89]	
(8%)	> 144 µM	Cc1ccc(Cl)c(Nc2ccc(C(=O)O)cc2)c1Cl [AK3-97B]	
	13.7 µM	Cc1ccc(Cl)c(Nc2cc(F)ccc2C(=O)O)c1Cl [AK3-98A]	
(−16%)	> 69 µM	Cc1ccc(Cl)c2[nH]c3c(C(=O)O)ccc(F)c3c12 [AK3-98B]	
	2.04 µM	COCOc1ccc(Cl)c(Nc2ccccc2C(=O)O)c1Cl [AK3-99A]	
	12.6 µM	O=C(O)c1ccccc1Nc1c(Cl)ccc(-c2ccccc2)c1Cl [AK3-100A]	
	3.6 µM	O=C(O)c1ccccc1Nc1c(Cl)ccc(O)c1Cl [AK3-102A]	
	1.79 µM	Cc1ccc(Cl)c(Nc2ncccc2C(=O)O)c1Cl [AK3-108B]	IC50 (CLC-2 [1]; [4]): 4 ± 0.7 µM; IC50 (CLC-1): > 30 µM; percent inhibition of CLC-1 at highest concentration tested (in parenthesis) (CLC-1; at the concentration listed in the same cell): 5%
	42.4 µM	Cc1ccc(Cl)c(Nc2ccccc2C(N)=O)c1Cl [AK3-124]	
(15%)	> 120 µM	NC(=O)c1ccc(COc2ccc(Cl)c(Nc3ccccc3C(=O)O)c2Cl)cc1 [AK3-219]	
(0%)	> 120 µM	NC(=O)c1ccccc1COc1ccc(Cl)c(Nc2ccccc2C(=O)O)c1Cl [AK3-225]	
	81.9 µM	CC(=O)Nc1cccc(COc2ccc(Cl)c(Nc3ccccc3C(=O)O)c2Cl)c1 [AK3-227]	
	17.9 µM	O=C(O)c1cccc(COc2ccc(Cl)c(Nc3ccccc3C(=O)O)c2Cl)c1 [AK3-239]	
	67.8 µM	O=C(O)c1ccccc1COc1ccc(Cl)c(Nc2ccccc2C(=O)O)c1Cl [AK3-250]	
	77.1 µM	O=C(CCCC[C@@H]1SC[C@@H]2NC(=O)N[C@@H]21)NCCOCCOCCOCCOCCC(=O)NCCOc1ccc(Cl)c(Nc2ccccc2C(=O)O)c1Cl [AK3-294]	
(7%)	> 120 µM	NCCOc1ccc(Cl)c(Nc2ccccc2C(=O)O)c1Cl [AK3-296]	
	7.32 µM	O=C(O)c1ccccc1Nc1c(Cl)ccc(OCCc2ccccc2)c1Cl [EEGI-060]	

The next lines start with the compound.

Structure (SMILES)	% inhibition at the concentration listed (in parenthesis) (CLC-2 [1])	IC50 (CLC-2 [1]; [3])	further results
O=C(O)c1ccccc1Nc1ccc(Cl)cc1Cl [AK2-200A]	(13%)	> 120 µM	
O=C(O)c1ccccc1Nc1ccc(Cl)c(Cl)c1 [AK2-200B]	(12%)	> 120 µM	
Cc1cccc(Nc2ccccc2C(=O)O)c1Cl [AK2-200C]	(43%)	> 120 µM	
Cc1ccc(Cl)c(Nc2ccccc2C(=O)O)c1 [AK2-214A]	(48%)	> 120 µM	
O=C(O)c1ccccc1Nc1c(Cl)cc(Cl)cc1Cl [AK2-214B]	(22%)	> 120 µM	
O=C(O)c1ccccc1Nc1c(F)cccc1F [AK2-214C]	(41%)	> 120 µM	
O=C(O)c1cccc2c1[nH]c1c(Cl)ccc(C(F)(F)F)c12 [AK2-270B]	(−48%)	> 120 µM	
Cc1ccc(Cl)c(Nc2cccc(C)c2C(=O)O)c1Cl [AK2-288C]	(37%)	> 102 µM	
COc1ccc(Cl)c(Nc2ccccc2C(=O)O)c1Cl [AK2-289A]		9.86 µM	
C=C(C)c1ccc(Cl)c(Nc2ccccc2C(=O)O)c1Cl [AK2-289B]		7.16 µM	
Cc1cccc(C)c1Nc1ccccc1C(=O)O [AK2-289C]		23.4 µM	
Cc1ccc(Cl)c(Nc2cccc(C(=O)O)c2)c1Cl [AK3-97A]	(36%)	> 141 µM	
CCc1cccc(CC)c1Nc1ccccc1C(=O)O [AK3-97C]		86.3 µM	
O=C(O)c1ccccc1Nc1c(Cl)ccc(OCC2CCCCC2)c1Cl [AK3-101A]		2.98 µM	
COc1ccccc1-c1ccc(Cl)c(Nc2ccccc2C(=O)O)c1Cl [AK3-101B]		5.29 µM	
O=C(O)c1ccccc1Nc1c(Cl)ccc(C2=CCCCC2)c1Cl [AK3-103B]		48.8 µM	
Cc1ccc(Cl)c(Nc2cccnc2C(=O)O)c1Cl [AK3-107A]	(12%)	> 222 µM	

Structure (SMILES)	% inhibition at the concentration listed (in parenthesis) (CLC-2 [1])	IC50 (CLC-2 [1]; [3])	further results
Cc1ccc(Cl)c(Nc2ccncc2C(=O)O)c1Cl [AK3-107B]	(16%)	> 42 µM	
Cc1ccc(Cl)c(Nc2cnccc2C(=O)O)c1Cl [AK3-108A]		115 µM	
Cc1ccc(Cl)c(Nc2ccccc2P(=O)(O)O)c1Cl [AK3-118]	(6%)	> 195 µM	
CCOP(=O)(O)c1ccccc1Nc1c(Cl)ccc(C)c1Cl [AK3-119]	(41%)	> 354 µM	
O=C(O)c1ccc(COc2ccc(Cl)c(Nc3ccccc3C(=O)O)c2Cl)cc1 [AK3-224]	(4%)	> 120 µM	
NC(=O)c1cccc(COc2ccc(Cl)c(Nc3ccccc3C(=O)O)c2Cl)c1 [AK3-226]	(5%)	> 120 µM	
O=C(O)c1cccc2c1[nH]c1c(Cl)ccc(OCc3ccccc3)c12 [AK3-251]	(5%)	> 120 µM	
O=C(O)c1ccccc1Nc1c(Cl)ccc(OCc2ccccc2F)c1Cl [AK3-261]		1.16 µM	
O=C(O)c1c2ccccc2cc2ccccc12 [Compound 9-AC]			potency of previously reported small-molecule inhibitors of CLC-2 (CLC-2 [2]): mM range
O=S(=O)(O)c1cc(N=C=S)ccc1C=Cc1ccc(N=C=S)cc1S(=O)(=O)O [DIDS]			potency of previously reported small-molecule inhibitors of CLC-2 (CLC-2 [2]): mM range
O=C(O)c1ccccc1Nc1ccccc1 [DPC, reference compound]	(27%)	> 312 µM	potency of previously reported small-molecule inhibitors of CLC-2 (CLC-2 [2]): mM range
Cc1cccc(COc2ccc(Cl)c(Nc3ccccc3C(=O)O)c2Cl)c1 [EEGI-054]		7.93 µM	
Cc1ccccc1COc1ccc(Cl)c(Nc2ccccc2C(=O)O)c1Cl [EEGI-055]		1.2 µM	
Cc1ccc(COc2ccc(Cl)c(Nc3ccccc3C(=O)O)c2Cl)cc1 [EEGI-056]		15.8 µM	
Cc1ccc(Cl)c(Nc2ccccc2C(=O)O)c1Cl [MCFA, meclofenamate, reference compound]		14 µM and 13.9 µM	IC50 (CLC-2 [1]; [4]): 8.7 ± 0.3 µM; IC50 (CLC-1): 60 ± 9 µM
O=C(O)c1cccnc1Nc1cccc(C(F)(F)F)c1 [NFA, reference compound]	(0%)	> 120 µM	
O=C(O)c1cc([N+](=O)[O-])ccc1NCCCc1ccccc1 [NPPB]			potency of previously reported small-molecule inhibitors of CLC-2 (CLC-2 [2]): mM range
